Laboratory results from paper PMC8934569 (Cancer chemotherapy and pharmacology, 2021).

Tests used:
[1] = Drug-related adverse events graded by NCI CTCAE version 4.0; format: in vivo, human; details: overall, 80 patients enrolled; given with veliparib
[2] = cyclophosphamide iv at 450 mg/m^2 and 750 mg/m^2
[3] = system: MX-1 BRCA1 deficient breast cancer model; details: in vivo; cited from earlier work
[4] = system: metastatic breast cancer; details: with veliparib 200 mg BID in 21-day cycles; cited from earlier work

O=P1(N(CCCl)CCCl)NCCCO1 (stereo not shown) [cyclophosphamide]
Patients with a dose reduction of cyclophosphamide [1]: 3 patients
Effect of oral veliparib on cyclophosphamide PK [2]: not influenced by veliparib
Tumor effect of single agent [3]: only delayed tumor growth slightly
Recommended phase II dose of cyclophosphamide [4]: 125 mg po daily
